Publication PMC10269775, “Penicillin-Binding Protein Occupancy Dataset for 18 β-Lactams and 4 β-Lactamase Inhibitors in Neisseria gonorrhoeae” (Microbiology Spectrum, 2023)
In brackets after ≈: the same amount, converted by molar mass. Where two headings read alike, the source gives them in different places.

Key:
PBP3 [1] = biological target: T1, PBP3 (Neisseria gonorrhoeae, UniProt Q5FAB9); settings: read-out: IC50 PBP3; strain ATCC 19424; membrane preparation, 30 min drug then Bocillin FL
T1 sequence (Q5FAB9 22-469): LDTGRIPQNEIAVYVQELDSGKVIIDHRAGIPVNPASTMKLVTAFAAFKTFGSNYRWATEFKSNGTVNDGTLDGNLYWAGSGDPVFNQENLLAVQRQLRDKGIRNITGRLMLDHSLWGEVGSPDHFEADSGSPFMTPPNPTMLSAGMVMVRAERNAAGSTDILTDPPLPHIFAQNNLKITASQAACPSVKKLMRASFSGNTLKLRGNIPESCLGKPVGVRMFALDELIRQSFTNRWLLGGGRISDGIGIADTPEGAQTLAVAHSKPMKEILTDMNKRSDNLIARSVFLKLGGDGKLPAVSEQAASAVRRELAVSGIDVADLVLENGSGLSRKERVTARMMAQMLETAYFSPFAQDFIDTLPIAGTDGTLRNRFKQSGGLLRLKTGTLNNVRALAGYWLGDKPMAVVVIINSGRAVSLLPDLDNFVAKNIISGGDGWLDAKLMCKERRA

PBP2 [2] = biological target: T2, PBP2 (Neisseria gonorrhoeae, UniProt P08149, H541N); test: PBP-binding assay (Bocillin FL) in isolated membrane preparations; design: species or system Neisseria gonorrhoeae ATCC 19424
T2 construct: endogenous in cells; host or cells: N. gonorrhoeae ATCC 19424, isolated membrane preparation

PBP1 [3] = biological target: T3, PBP1 (Neisseria gonorrhoeae, UniProt O05131, A375T/F666S); test: as above; design: species or system Neisseria gonorrhoeae ATCC 49226
T3 construct: endogenous in cells; host or cells: N. gonorrhoeae ATCC 49226, isolated membrane preparation
Excerpt: (§1) Bacterial membranes were collected by ultracentrifugation.

PBP2 [4] = biological target: T4, PBP2 (Neisseria gonorrhoeae, UniProt P08149, A510V/A516G/A574V/F504L/H541N/I556V/I566V/K555Q/P552V); test: biochemical; assay type: binding, Neisseria gonorrhoeae ATCC 49226
T4 construct: endogenous in cells; host or cells: N. gonorrhoeae ATCC 49226, isolated membrane preparation

[5] = tested on: N. gonorrhoeae ATCC 19424; test: MIC, CLSI broth microdilution; assay type: cell-based; settings: Neisseria gonorrhoeae
PBP1, PBP2 and PBP3 [6] = biological target: T5, PBP1, PBP2 and PBP3 (Neisseria gonorrhoeae, UniProt Q5FAB9); assay type: binding, Neisseria gonorrhoeae ATCC 19424; settings: read-out: min. IC50 (minimum observed IC50 value); strain ATCC 19424
T5 sequence (Q5FAB9 22-469): T1 sequence (Q5FAB9 22-469)

PBP1 [7] = biological target: T6, PBP1 (Neisseria gonorrhoeae, UniProt O05131); test: PBP-binding assay (Bocillin FL) in isolated membrane preparations; settings: strain ATCC 19424
T6 construct: endogenous in cells; host or cells: N. gonorrhoeae ATCC 19424, isolated membrane preparation
Excerpt: as §1

[8] = tested on: N. gonorrhoeae ATCC 49226; test: MIC, CLSI broth microdilution; assay type: cell-based, Neisseria gonorrhoeae; settings: for MIC: Neisseria gonorrhoeae
PBP3 [9] = biological target: T1, PBP3; settings: read-out: IC50 PBP3; strain ATCC 49226; membrane preparation, 30 min drug then Bocillin FL
PBP1, PBP2 and PBP3 [10] = biological target: T5, PBP1, PBP2 and PBP3; assay type: binding, Neisseria gonorrhoeae ATCC 49226; settings: read-out: min. IC50 (minimum observed IC50 value); strain ATCC 49226
PBP1, PBP2 and PBP3 [11] = biological target: PBP1, PBP2 and PBP3 (Neisseria gonorrhoeae, UniProt P08149, H541N); assay type: binding, Neisseria gonorrhoeae ATCC 19424; settings: read-out: min. IC50 (minimum observed IC50 value); strain ATCC 19424
PBP1, PBP2 and PBP3 [12] = assay type: binding, Neisseria gonorrhoeae ATCC 49226; settings: strain ATCC 49226
PBP2 [13] = biological target: PBP2 (Neisseria gonorrhoeae, UniProt P08149); settings: read-out: IC50 for PBP2; across both strains ATCC 19424 and ATCC 49226
PBP1, PBP2 and PBP3 [14] = biological target: PBP1, PBP2 and PBP3 (Neisseria gonorrhoeae, UniProt P08149, A510V/A516G/A574V/F504L/H541N/I556V/I566V/K555Q/P552V); assay type: binding, Neisseria gonorrhoeae ATCC 49226; settings: read-out: min. IC50 (minimum observed IC50 value); strain ATCC 49226
N. gonorrhoeae = settings: single 2-g dose; isolates with an MIC above 0.5 mg/L; cited from earlier work
PBP1, PBP2 and PBP3 [15] = assay type: binding, Neisseria gonorrhoeae ATCC 19424; settings: strain ATCC 19424
[16] = IC50 PBP2 (Table S1), strain ATCC 19424
[17] = IC50 PBP2, strain ATCC 19424, membrane preparation, 30 min drug then Bocillin FL
[18] = IC50 PBP1 (Table S1), strain ATCC 49226
[19] = IC50 PBP1, strain ATCC 49226, membrane preparation, 30 min drug then Bocillin FL
[20] = IC50 PBP2 (Table S1), strain ATCC 49226
[21] = IC50 PBP2, strain ATCC 49226, membrane preparation, 30 min drug then Bocillin FL
[22] = ATCC19424, strain ATCC 19424, read-out: MIC (Table S1)
[23] = membrane preparation, 30 min drug then Bocillin FL, read-out: IC50 PBP1 (converted)
[24] = ATCC49226, read-out: MIC (Table S1)
[25] = ATCC19424, read-out: MIC (Table S1)
[26] = ATCC19424, strain ATCC 19424, read-out: MIC
[27] = ATCC49226, strain ATCC 49226, read-out: MIC
[28] = ATCC49226, strain ATCC 49226, read-out: MIC (Table S1)

Compound | IC50 (PBP3 [1]) [µM] | IC50 (PBP2 [2]; [17]) [µM] | IC50 (PBP1 [3]; [18]) [µM] | IC50 (PBP1 [3]; [19]) [µM] | IC50 (PBP2 [4]; [20]) [µM] | IC50 (PBP2 [4]; [21]) [µM] | MIC [5, 22] [µg/mL] | IC50 (PBP1 [7]; [23]) [µM] | MIC ([8]; ATCC49226) [µg/mL] | MIC [8, 24] [µg/mL] | IC50 (PBP3 [9]) [µM] | IC50 (PBP1, PBP2 and PBP3 [10]) [µM] | IC50 (PBP1, PBP2 and PBP3 [11]) [µM] | IC50 (PBP2 [13]) [µM] | MIC [5, 26] [µg/mL] | MIC [8, 27] [µg/mL] | MIC [8, 28] [µg/mL] | IC50 (PBP1, PBP2 and PBP3 [14]) [µM] | also measured
NC(=O)[C@@H]1CC[C@@H]2CN1C(=O)N2OS(=O)(=O)O [AVI, avibactam] | 8.78 | 441 | > 1930 | > 965 | > 1930 | > 965 | 128 (≈ 483 µM) | > 1930 | > 256 | 512 (≈ 1930 µM) | 20.4 | 20.4 |  |  |  |  |  |  | IC50 (PBP2 [2]; [16]): 442 µM; IC50 (PBP1, PBP2 and PBP3 [6]): 8.78 µM
CC1(C)[C@H](C(=O)O)N2C(=O)C[C@H]2S1(=O)=O [SUL, sulbactam] | 39.9 | 5.06 | 871 | 870 |  | 25.8 |  | 236 | 4 (≈ 17.1 µM) | 4 (≈ 17.1 µM) | 27.3 |  | 5.06 |  |  |  |  |  | MIC ([5]; ATCC19424): 0.25 µg/mL (≈ 1.07 µM); MIC [5, 25]: 0.25 µg/mL (≈ 1.07 µM); IC50 (PBP1 [7]; read-out: IC50 PBP1 (Table S1) (converted)): 238 µM; min. IC50 (minimum observed IC50 value) (PBP1, PBP2 and PBP3 [12]): 6.02 µg/mL
CO/N=C(\C(=O)N[C@@H]1C(=O)N2C(C(=O)O)=C(COC(C)=O)CS[C@H]12)c1csc(N)n1 [CTX, cefotaxime] | 3.14 | 0.022 |  | > 4.39 |  | 0.022 | 0.004 (≈ 0.00878 µM) | 4.06 |  |  | 2.24 |  | 0.022 | 0.022 | 0.004 (≈ 0.00878 µM) | 0.008 (≈ 0.0176 µM) | 0.008 (≈ 0.0176 µM) | 0.022 | 
C[C@H]1[C@H](NC(=O)/C(=N\OC(C)(C)C(=O)O)c2csc(N)n2)C(=O)N1S(=O)(=O)O [ATM, aztreonam] |  |  |  | > 4.59 |  |  | 0.032 (≈ 0.0735 µM) | > 4.59 | 0.125 (≈ 0.287 µM) |  |  |  |  |  | 0.032 (≈ 0.0735 µM) |  | 0.25 (≈ 0.574 µM) |  | cure rate (N. gonorrhoeae): 50%
CC1(C)S[C@@H]2[C@H](NC(=O)Cc3ccccc3)C(=O)N2[C@H]1C(=O)O [PenG, penicillin G] | 0.0598 | 0.15 |  | > 5.98 |  | 0.778 | 0.063 (≈ 0.188 µM) | 5.65 |  |  | 0.0299 | 0.0299 |  |  | 0.064 (≈ 0.191 µM) | 0.125 (≈ 0.374 µM) | 0.125 (≈ 0.374 µM) |  | min. IC50 (minimum observed IC50 value) (PBP1, PBP2 and PBP3 [15]): 0.02 µg/mL
C=CC1=C(C(=O)O)N2C(=O)[C@@H](NC(=O)/C(=N\OCC(=O)O)c3csc(N)n3)[C@H]2SC1 [CFM, cefixime] | > 4.41 | 0.0221 |  | > 4.41 |  | 0.0441 | 0.004 (≈ 0.00882 µM) | 2.03 |  |  | > 4.41 |  | 0.0221 | 0.0221 | 0.004 (≈ 0.00882 µM) | 0.016 (≈ 0.0353 µM) | 0.016 (≈ 0.0353 µM) | 0.0441 | MIC increase for strain ATCC 49226 ([8]; ATCC 49226 versus ATCC 19424): 4 fold
CC(C)(O/N=C(\C(=O)N[C@@H]1C(=O)N2C(C(=O)[O-])=C(C[n+]3ccccc3)CS[C@H]12)c1csc(N)n1)C(=O)O [CAZ, ceftazidime] | > 3.66 | 0.0183 |  | > 3.66 |  | 0.0183 | 0.016 (≈ 0.0293 µM) | > 3.66 |  |  | > 3.66 |  | 0.0183 | 0.0183 | 0.016 (≈ 0.0293 µM) | 0.032 (≈ 0.0585 µM) | 0.032 (≈ 0.0585 µM) | 0.0183 | 
O=C(NC1CCNCC1)[C@@H]1CC[C@@H]2CN1C(=O)N2OS(=O)(=O)O [REL, relebactam] | 3.65 | > 1470 | > 1470 | > 735 | > 1470 | > 735 |  | > 1470 | > 256 | 512 (≈ 1470 µM) | 3.76 | 3.76 |  |  |  |  |  |  | IC50 (PBP2 [2]; [16]): 1470 µM; MIC ([5]; ATCC19424): > 256 µg/mL; MIC [5, 25]: 512 µg/mL (≈ 1470 µM); IC50 (PBP1, PBP2 and PBP3 [6]): 3.65 µM
C[C@@H](O)[C@H]1C(=O)N2C(C(=O)O)=C(S[C@@H]3CN[C@H](CNS(N)(=O)=O)C3)[C@H](C)[C@H]12 [DOR, doripenem] |  | 0.143 |  | 2.57 | 0.214 | 0.19 | 0.004 (≈ 0.00951 µM) | 2.69 |  |  |  |  |  |  | 0.004 (≈ 0.00951 µM) | 0.032 (≈ 0.0761 µM) | 0.032 (≈ 0.0761 µM) |  | min. IC50 (minimum observed IC50 value) (PBP1, PBP2 and PBP3 [15]): 0.01 µg/mL
